Laboratory results: patent US20260297060A1, “COMPOUNDS FOR THE DEGRADATION OF MUTANT BRAF” (C4 THERAPEUTICS, INC., priority 2023, published 2026)

Tested on: A375 human melanoma xenografts
Experiment: In vivo therapeutic efficacy in A375 human melanoma xenografts (tumor volume, T/C, TGI), Example 14
Parameters: species or system human tumor in female BALB/c nude mice
Procedure: Agents were tested in the A375 human melanoma xenografts. Compound 26 and Compound 141 were administered to BALB/c nude mice bearing A375 tumors from PG-DO and dosed via PO twice a day (BID) or third a day (TIP) or dosed P daily (QD) from PG-D. Dabrafenib was administered to BALB/c nude mice bearing A375 tumors from PG-D1 and dosed via P daily (QD). Compound 26 was dosed at 1.5 mg/kg (QD), 2 mg/kg (TID), 3 mg/kg (BID), 6 mg/kg (QD) and 10 mg/kg (BID) for 21 days. Compound 141 was dosed at 0.75 mg/kg (BID), 1 mg/kg (TID), 1.5 mg/kg (BID), 3 mg/kg (QD) and 5 mg/kg (BID) for 21 days. Dabrafenib was dosed at 100 mg/kg for 21 days. This study was non-GLP.
One hundred and thirty-eight female BALB/c nude Mus Musculus mice procured from Shanghai Lingchang Biological Science and Technology Co., LTD between the ages of six to eight weeks and with body weight between eighteen and twenty-two grams were used for the study. A spare mouse was also procured.
The A375 tumor cells were maintained in vitro in DMEM medium supplemented with 10% fetal bovine serum and 1% Penicillin-Streptomycin at 37° C. in an atmosphere of 5% CO2 in air. The tumor cells were routinely sub-cultured twice weekly. The cells growing in an exponential growth phase were harvested and counted for tumor inoculation.
Each mouse was inoculated subcutaneously at the right flank with A375 cells (5×10^6) in 0.2 mL of PBS supplemented with Matrigel (PBS: Matrigel=1:1) for tumor development. Animals were grouped for efficacy study on day 15 after tumor inoculation when the average tumor volume reached 220 mm^3. The test articles administration and the animal numbers in each group are shown in the above experimental Table 75.
At the time of routine monitoring, the animals were checked daily for any effects of tumor growth and treatments on normal behavior such as mobility, food and water consumption (by looking only), body weight gain/loss (body weights were measured twice weekly), eye/hair matting and any other abnormal effect as stated in the protocol. Death and observed clinical signs were recorded on the basis of the numbers of animals within each subset.
Prior to the onset of drug treatment, mice were measured for tumor size in two dimensions using a caliper, and the tumor volume (mm^3) was calculated using formula V=0.5 a×b^2 where a and b are the long and short diameters of the tumor in mm, respectively. Mice were randomized into different treatment groups based on the tumor volume.
The major endpoint was to see if the tumor growth could be delayed or mice could be cured. The tumor size was then used for calculations of T/C value. The T/C value (in percent) is an indication of antitumor effectiveness; T and C are the mean volumes of the treated and control groups, respectively on specified day.
TGI was calculated for each group using the formula: TGI (%)=[1−(Ti−T0)/(Ci−C0)]×100; Ti is the average tumor volume of a treatment group on a given day, T0 is the average tumor volume of the treatment group on the day of treatment start, Ci is the average tumor volume of the vehicle control group on the same day with Ti, and C0 is the average tumor volume of the vehicle group on the day of treatment start.
A one-way ANOVA followed by Dunnett's multiple comparison test was performed to compare tumor volume among vehicle group (Group 1) and treatment groups (Group 2-Group 12). All data were analyzed using GraphPad Prism, ns indicates p>0.05, * indicates p<0.05, ** indicates p<0.01, *** indicates p<0.001 and **** indicates p<0.0001.
Tumor growth inhibition of Compound 26, Compound 141 and dabrafenib in the treatment of female BALB/c nude mice bearing A375 xenografts was calculated based on tumor volume measured on […]. TGI and T/C were calculated respectively and the data are detailed in Table 82.

[1] = 2 mg/kg p.o. TID × 21 days, PG-D21

## CCN(C)S(=O)(=O)Nc1ccc(F)c(Oc2ccc3ncn([C@H]4COC5(CCN(C6CC7(C6)CN(c6cc8c(cc6F)c(N6CCC(=O)NC6=O)nn8C)C7)CC5)C4)c(=O)c3c2)c1C#N [Compound 26, (3R)-3-[6-[2-cyano-3-[[ethyl(methyl)sulfamoyl]amino]-6-fluoro-phenoxy]-4-oxo-quinazolin-3-yl]-8-[2-[3-(2,4-dioxohexahydropyrimidin-1-yl)-5-fluoro-1-methyl-indazol-6-yl]-2-azaspiro[3.3]heptan-6-yl]-1-oxa-8-azaspiro[4.5]decane]
1.5 mg/kg p.o. BID x 21 days, day 0, mean ± SEM
  Tumor volume: 220 ± 16 mm^3
1.5 mg/kg p.o. BID x 21 days, day 4, mean ± SEM
  Tumor volume: 249 ± 21 mm^3
1.5 mg/kg p.o. BID x 21 days, day 7, mean ± SEM
  Tumor volume: 227 ± 23 mm^3
1.5 mg/kg p.o. BID x 21 days, day 11, mean ± SEM
  Tumor volume: 210 ± 26 mm^3
1.5 mg/kg p.o. BID x 21 days, day 14, mean ± SEM
  Tumor volume: 204 ± 26 mm^3
1.5 mg/kg p.o. BID x 21 days, day 18, mean ± SEM
  Tumor volume: 271 ± 44 mm^3
1.5 mg/kg p.o. BID x 21 days, day 21, mean ± SEM
  Tumor volume: 400 ± 70 mm^3
1.5 mg/kg p.o. BID x 21 days, day 25 (dosing-free regrowth), mean ± SEM
  Tumor volume: 730 ± 94 mm^3
1.5 mg/kg p.o. BID x 21 days, day 28 (dosing-free regrowth), mean ± SEM
  Tumor volume: 1006 ± 99 mm^3
1.5 mg/kg p.o. BID x 21 days, day 32 (dosing-free regrowth), mean ± SEM
  Tumor volume: 1224 ± 99 mm^3
1.5 mg/kg p.o. BID x 21 days, day 35 (dosing-free regrowth), mean ± SEM
  Tumor volume: 1497 ± 94 mm^3
1.5 mg/kg p.o. BID x 21 days, day 39 (dosing-free regrowth), mean ± SEM
  Tumor volume: 1978 ± 148 mm^3
1.5 mg/kg p.o. BID x 21 days, day 42 (dosing-free regrowth), mean ± SEM
  Tumor volume: 2420 ± 205 mm^3
1.5 mg/kg p.o. BID x 21 days, day 46 (dosing-free regrowth), mean ± SEM
  Tumor volume: 2759 ± 274 mm^3
1.5 mg/kg p.o. BID x 21 days, day 49 (dosing-free regrowth), mean ± SEM
  Tumor volume: 2514 ± 268 mm^3
1.5 mg/kg p.o. BID x 21 days, day 53 (dosing-free regrowth), mean ± SEM
  Tumor volume: 3087 ± 444 mm^3
1.5 mg/kg p.o. BID x 21 days, day 56 (dosing-free regrowth)
  Tumor volume: 3153 mm^3
2 mg/kg p.o. TID x 21 days, day 0, mean ± SEM
  Tumor volume: 220 ± 15 mm^3
2 mg/kg p.o. TID x 21 days, day 4, mean ± SEM
  Tumor volume: 172 ± 13 mm^3
2 mg/kg p.o. TID x 21 days, day 7, mean ± SEM
  Tumor volume: 99 ± 9 mm^3
2 mg/kg p.o. TID x 21 days, day 11, mean ± SEM
  Tumor volume: 68 ± 8 mm^3
2 mg/kg p.o. TID x 21 days, day 14, mean ± SEM
  Tumor volume: 51 ± 7 mm^3
2 mg/kg p.o. TID x 21 days, day 18, mean ± SEM
  Tumor volume: 36 ± 4 mm^3
2 mg/kg p.o. TID x 21 days, day 21, mean ± SEM
  Tumor volume: 41 ± 5 mm^3
2 mg/kg p.o. TID x 21 days, day 25 (dosing-free regrowth), mean ± SEM
  Tumor volume: 85 ± 16 mm^3
2 mg/kg p.o. TID x 21 days, day 28 (dosing-free regrowth), mean ± SEM
  Tumor volume: 156 ± 32 mm^3
2 mg/kg p.o. TID x 21 days, day 32 (dosing-free regrowth), mean ± SEM
  Tumor volume: 292 ± 57 mm^3
2 mg/kg p.o. TID x 21 days, day 35 (dosing-free regrowth), mean ± SEM
  Tumor volume: 441 ± 86 mm^3
2 mg/kg p.o. TID x 21 days, day 39 (dosing-free regrowth), mean ± SEM
  Tumor volume: 754 ± 156 mm^3
2 mg/kg p.o. TID x 21 days, day 42 (dosing-free regrowth), mean ± SEM
  Tumor volume: 980 ± 198 mm^3
2 mg/kg p.o. TID x 21 days, day 46 (dosing-free regrowth), mean ± SEM
  Tumor volume: 1320 ± 265 mm^3
2 mg/kg p.o. TID x 21 days, day 49 (dosing-free regrowth), mean ± SEM
  Tumor volume: 1646 ± 332 mm^3
2 mg/kg p.o. TID x 21 days, day 53 (dosing-free regrowth), mean ± SEM
  Tumor volume: 2216 ± 435 mm^3
2 mg/kg p.o. TID x 21 days, day 56 (dosing-free regrowth), mean ± SEM
  Tumor volume: 2482 ± 579 mm^3
2 mg/kg p.o. TID × 21 days
  Tumor Size on PG-D21 (Mean ± SEM): 41 ± 5 mm^3
[1]
  T/C: 2.2%
  TGI: 110.8%
3 mg/kg p.o. BID x 21 days, day 0, mean ± SEM
  Tumor volume: 220 ± 15 mm^3
3 mg/kg p.o. BID x 21 days, day 4, mean ± SEM
  Tumor volume: 219 ± 16 mm^3
3 mg/kg p.o. BID x 21 days, day 7, mean ± SEM
  Tumor volume: 136 ± 11 mm^3
3 mg/kg p.o. BID x 21 days, day 11, mean ± SEM
  Tumor volume: 83 ± 6 mm^3
3 mg/kg p.o. BID x 21 days, day 14, mean ± SEM
  Tumor volume: 52 ± 5 mm^3
3 mg/kg p.o. BID x 21 days, day 18, mean ± SEM
  Tumor volume: 45 ± 7 mm^3
3 mg/kg p.o. BID x 21 days, day 21, mean ± SEM
  Tumor volume: 48 ± 9 mm^3
3 mg/kg p.o. BID x 21 days, day 25 (dosing-free regrowth), mean ± SEM
  Tumor volume: 129 ± 75 mm^3
3 mg/kg p.o. BID x 21 days, day 28 (dosing-free regrowth), mean ± SEM
  Tumor volume: 258 ± 165 mm^3
3 mg/kg p.o. BID x 21 days, day 32 (dosing-free regrowth), mean ± SEM
  Tumor volume: 423 ± 234 mm^3
3 mg/kg p.o. BID x 21 days, day 35 (dosing-free regrowth), mean ± SEM
  Tumor volume: 578 ± 289 mm^3
3 mg/kg p.o. BID x 21 days, day 39 (dosing-free regrowth), mean ± SEM
  Tumor volume: 878 ± 311 mm^3
3 mg/kg p.o. BID x 21 days, day 42 (dosing-free regrowth), mean ± SEM
  Tumor volume: 1129 ± 390 mm^3
